We go through 88 molecules from a melting point compilation (Tetko et al.; mined from patent text by program, amines drawn as free bases though some values may be those of a salt).

As usually defined, the melting point is the temperature of the solid-liquid transition.

Consider `CS(=O)(=O)c1ccc(-c2cnn(-c3ccc(F)c(Cl)c3)c(=O)c2-c2ccc(F)cc2)cc1`, for which the melting point fell in the range of 155 to 157 °C. To `N#Cc1cccc(OC2SCC(O)C(O)C2O)c1` (stereo not drawn) belongs 130 to 135 °C. Under `CC(=O)NC1CCc2c([nH]c3ccc(F)cc23)C1` (stereo not drawn) stands 209 to 210 °C; under `Nc1ccc(C(=O)N2CCOCC2)cc1[N+](=O)[O-]`, 184 to 189 °C; under `COc1ccc(S(=O)(=O)n2c(=O)n(-c3ccccc3)c3cc(Cl)ccc32)cc1OC`, 154 °C.

Regarding `C(=C(c1ccccc1)c1ccccc1)c1ccc(N(c2ccccc2)c2ccc3c4c(cccc24)CC3)cc1`, the melting point was 189 to 190 °C. Take `CN(Cc1ccco1)Cn1cc(C#N)c(-c2cccc(Cl)c2Cl)c1`: the melting point lay in the range of 79 to 80 °C. In turn, `CNC(=O)ON=C1SCCN(C(=O)NC)C1=O` returned a melting point of 187 to 189 °C. In turn, `CCOC(=O)c1ccc2c(c1)C(C)(Cl)C(=S)N2` (stereo not drawn) returned a melting point of 205 to 207 °C.

`O=C1OC(CCCCN2CCN(c3ccccn3)CC2)CN1c1ccccc1` (stereo not drawn) gave a melting point of 78 to 81 °C. Molecule `COC(=O)c1ccc(S(C)(=O)=O)c(C=O)c1C` had a melting point of 108 to 110 °C. `Clc1c(Br)cncc1Br`: the melting point is 101 to 103 °C. On to `CSc1cccc2c1Sc1ccc(O)cc1N2`, for which the melting point lay in the range of 188 to 190 °C.

Turning to `O=C1CCC(c2ccccc2)(c2ccccc2)[C@@H]2CN(C(=O)Cc3ccc(Cl)cc3)C[C@H]12` (racemic), the melting point was 213 °C.

The molecule `O=C(Cc1ccccn1)NC1CCC2(O)C3Cc4ccc(O)c5c4C2(CCN3CC2CC2)C1O5` (stereo not drawn) returned a melting point of 210 to 212 °C. Under `O=C(CBr)c1coc2ccccc2c1=O` stands 140 to 145 °C; under `COCCO[C@@H]1c2ccc3c(nc(C)n3C)c2O[C@H](c2ccccc2)[C@H]1O`, 163 °C; under `COc1ccc(C2CC(=O)N(C(N)=O)N2Cc2ccccc2)cc1OC1CCCC1` (stereo not drawn), 148 to 149 °C. Under `COc1ccc(CN2CCC(N3Cc4cc(Cl)c(S(N)(=O)=O)cc4C3=O)CC2)cc1` stands 207 to 210 °C; under `CC#CC(C)Oc1cc(N)c(Cl)cc1C(=O)O` (stereo not drawn), 114 to 116 °C. Regarding `CCOc1ccc(NC=C(C#N)C(=O)Nc2cc(OC)c(Cl)cc2Cl)cc1F`, the melting point lay in the range of 245 to 247 °C. To `CCn1c(=O)c2c(nc(/C=C/c3ccc(O)c(O)c3)n2C)n(CC)c1=O` belongs 248 °C; to `CN(C)C(=N)Nc1ccc(F)cc1-c1ccccc1`, 160 to 161 °C; to `CC1(C)CCC(C)(C)c2cc(NC(=O)c3ccc(OCCN4CCOCC4)cc3)ccc21`, 130 to 132 °C. To `COC1OC(CO)C(O)C(NC(=O)N(C)N=O)C1O` (stereo not drawn) belongs 116 to 117 °C.

`CN(C)CCNc1ccc(-c2nn(CC(=O)O)c3ncccc23)cc1`: the melting point is 240 to 242 °C. `CCOC(=O)[C@H](Cc1ccc(O)cc1)NC(=O)C1(NC(=O)[C@@H](SC(=O)C2CCCC2)C(C)C)CCCC1` had a melting point of 130 to 131 °C. Under `CON1C=C2N=NC3=C(N2C1)N(c1ccccc1Cl)CC=C3` stands 190 to 193 °C; under `Cc1noc(NS(=O)(=O)c2sccc2Cc2ccccc2)c1Br`, 180 to 183 °C; under `CCCCCC(C)N(Cc1ccc(CC(C)(C)C)s1)C(Nc1ccc(OC)cc1OC)=C1C(=O)OC(C)(C)OC1=O` (stereo not drawn), 152 to 153 °C.

On to `CC(C)NS(=O)(=O)c1ccc(N2CCC(=O)CC2)cc1`, for which the melting point lay within 103 to 105 °C.

`COC(=O)c1ccc(F)c(Br)c1` gave a melting point of 29 to 30 °C. `Cc1nc[nH]c1CSCCN=C(NC#N)NCCCCCCCCN` returned a melting point of 122 to 124 °C. Under `Cn1cc(CO)c(=O)c2cccc(Cl)c21` stands 182 to 184 °C; under `C=CCOC(=O)c1cc(NC(=O)OC(C)(C)C)ccc1OCC=C`, 77 to 78 °C. To `CCOC(=O)C(C#N)C(=O)c1cccn1C` (stereo not drawn) belongs 74 to 77 °C. To `CNCC1CCN(c2c(F)cc3c(=O)c(C(=O)O)cn4c3c2OCC4C)C1` (stereo not drawn) belongs 235 to 238 °C; to `CC(C)CC(SCc1ccccc1)c1c(O)cc(-c2ccccc2)oc1=O` (stereo not drawn), 153 to 155 °C; to `Cc1cccc(C)c1NC(=O)CN1CCN(CCC(c2ccc(F)cc2)c2ccc(F)cc2)C(C(N)=O)C1` (stereo not drawn), 143 °C. The molecule `CCCCc1nc(SC)c[nH]1` registered a melting point of 64 °C. Consider `CC(C)c1cccc2c1OC(C(F)(F)F)C(C(=O)O)=C2` (stereo not drawn), for which the melting point fell in the range of 210 to 212 °C. Under `CCOc1ccc2c(c1)N=C(c1cccc(-c3ccc(C)nc3)c1)CC(=O)N2` stands 173 °C; under `O=C(O)CCc1c(Sc2ccccc2)c2cc(F)ccc2n1Cc1ccc(Cl)cc1`, 138 to 139 °C; under `Cc1cc(CCCCCOc2ccc(C#N)cc2)no1`, 61 to 62 °C. As to `COC(=O)C(C)(C)S(=O)(=O)N1CCC(c2ccc(-n3ccc(OC)n3)c(C)c2)CC1`, the melting point was in the range of 109 to 110 °C. To `CC(C)(C)OC(=O)N1CCC(n2nnc(-c3cnc(-c4ccccc4)nc3)n2)CC1` belongs 178 to 180 °C.

`CCN(C)C(=O)c1ccc(N2CCN(Cc3cnc4c(c3)NC(=O)[C@@H]3CCCN43)CC2)cc1`: the melting point stood at 91.9 °C. Under `COCCO[C@@H]1c2ccc3[nH]c(C)nc3c2O[C@H](c2ccccc2)[C@H]1O` stands 117 °C; under `O=[N+]([O-])c1ccc(N2CCN(Cc3ccccc3)CC2)cc1`, 115 to 118 °C. Under `CC(C)c1cc(C(C)C)c(NC(=O)CN2CCN(CCSc3nc4ccccc4[nH]3)CC2)c(C(C)C)c1` stands 217 to 218 °C; under `O=C1N=NC(=O)c2c1[nH]c1cccc(Br)c21`, more than 260 °C; under `COc1cc(C#N)ccc1C(Br)C(Br)C(=O)c1ccc(C#N)cc1` (stereo not drawn), 163 to 165 °C. To `CCC(=O)Oc1ccc(C(=O)c2ccccc2)cc1` belongs 53.5 to 54.5 °C.

`N#CCC1OC(n2cnc3c(NN4CCCCC4)nc(Cl)nc32)C(O)C1O` (stereo not drawn): the melting point lay within 192 to 193 °C.

Molecule `C[C@@H](n1ncn(-c2ccc(-n3cncn3)cc2)c1=O)[C@](O)(Cn1cncn1)c1ccc(F)cc1F` showed a melting point of 182 to 184 °C. For the molecule `COc1cc(C)nc(NC(=O)NS(=O)(=O)c2c(Br)csc2C(=O)c2cccs2)n1`, the melting point stood at 106 °C. Under `CC#CC(O)(C(=O)OC)c1ccccc1` (stereo not drawn) stands 64 to 65 °C. `N#Cc1ccc(-c2ccccc2)c(NC(=O)Nc2cccnc2)c1` gave a melting point of 180 to 182 °C. `CCc1cccc2c3c([nH]c12)C(CC)(CC(C)=O)OCC3` (stereo not drawn) returned a melting point of 154 to 155 °C.

In turn, `CCCn1nc2c(N)nc3ccccc3c2c1NCC` yielded a melting point of 193 to 194 °C. In turn, `COc1cccc(Oc2ccc3ccc(-c4cc(OC)ccc4C(N)=O)nc3n2)c1` had a melting point of 150 °C. Under `CCOC(=O)c1c(C)nc(N2CCN(C)CC2)c([N+](=O)[O-])c1Cl` stands 59 to 61 °C; under `Cc1cc2ccc(Cl)c(C(=O)O)c2nc1C(F)(F)F`, 186 to 188 °C; under `CS(=O)(=O)c1c(C#N)nn(-c2c(Cl)cc(C(F)(F)F)cc2Cl)c1-n1cccc1`, 200 to 202 °C.

Molecule `O[C@@H]1CN=C(c2ccc(Cl)c(Cl)c2)O[C@H]1c1ccccc1` (racemic) returned a melting point of 158 °C. Molecule `CC(=O)Nc1ccc(C=O)c(F)c1F` registered a melting point of 154 °C.

The molecule `Cc1ccc(C(=O)c2ccc(OCC(=O)O)c(Cl)c2Cl)cc1` yielded a melting point of 176 to 177 °C. To `O=C1Cc2cccc(CNC(=O)C3Cc4ccccc4N3S(=O)(=O)c3ccc(-c4cccc(C(F)(F)F)c4)cc3)c2N1` (stereo not drawn) belongs 50 °C; to `C#CCN1CSCC1=O`, 29 to 31 °C. To `CCOc1ccc(-c2c(Cl)ncn2-c2ccc(S(=O)(=O)NC(C)(C)C)cc2)cc1` belongs 189 °C.

Molecule `CN(C)CCCCCCCCCOc1ccc2oc(-c3ccccc3)cc(=O)c2c1` came in with a melting point of 52 to 53 °C. In the case of `O=C1Nc2ccc(-c3cccc(Cl)c3)cc2C12OCCCO2`, the melting point fell in the range of 242 to 244 °C. Under `CC(=O)OCC1OC(c2ccc(Cl)c(Cc3ccc(-c4ccc(F)nc4)s3)c2)C(OC(C)=O)C(OC(C)=O)C1OC(C)=O` (stereo not drawn) stands 161 to 162 °C. As for `N#Cc1ccccc1C=C1c2ccccc2CCc2ccccc21`, the melting point is 185 °C. To `COC(=O)C(C)(C)Cc1c(SC(C)(C)C)c2cc(OCc3cnccn3)ccc2n1Cc1ccc(Cl)cc1` belongs 141 to 142 °C.

`O=C(O)CCOC(c1ccccc1)(c1ccccc1)c1ccccc1` yielded a melting point of 159 to 161 °C. Under `COc1ccc(-c2c(Cl)nc(Cl)nc2-c2ccccc2)cc1` stands 132 to 134 °C. Consider `CCCCCCCCCCCCCCc1ccc(OCC2COC(C)(C)O2)cc1` (stereo not drawn), for which the melting point was 52 to 53 °C.

Turning to `CSc1nnc(-c2ccc3ncn(-c4cccc(OC(F)(F)F)c4)c3c2)o1`, the melting point is 149 to 150 °C. Molecule `COc1cc(Cc2cnc(N)nc2N)cc(C#Cc2ccc3ccccc3c2)c1OC` displayed a melting point of 152 to 155 °C. Under `CC(C)n1nc(-c2sc(NC(=O)n3c4ccccc4c4ccccc43)nc2-c2ccccc2)ccc1=O` stands 241 to 242 °C. With `CCN(CC)C(=O)c1ccc2cc(-c3csc(N(C)S(=O)(=O)c4ccccc4)n3)c(=O)[nH]c2c1`, the melting point lay within 200 to 202 °C. To `CC(=O)c1c(CCc2ccc(F)cc2)[nH]c2ccc(Cl)cc12` belongs 170 to 172 °C; to `CC1(C)CC(=O)c2c(Br)cn(-c3ccccn3)c2C1`, 166 to 168 °C. `O=C1CSC(c2cccc(Cl)c2)c2cc(C(=O)c3ccc(Cl)cc3)ccc2N1` (stereo not drawn): the melting point came out at 222 °C. To `CCOC(=O)Cc1sc(Sc2cccc(C(F)(F)F)n2)nc1C` belongs 56 to 57 °C. Molecule `OC1CSC(Oc2cccc(-c3ccncc3)n2)C(O)C1O` (stereo not drawn) yielded a melting point of 178 °C. As for `COc1cc2c3ccc(OC)c(OC)c3n(C(=O)c3ccccc3)c2cc1OC`, the melting point lay in the range of 184 to 185 °C.
